In one data set the test system is Candida parapsilosis. In words: Antifungal activity against Candida parapsilosis ATCC 22019 assessed as inhibition of fungal growth incubated for 24 hrs. In kind it is functional. Conditions: Lodderomyces parapsilosis.
Another data set has as its system Candida albicans. Kind of data set: Antifungal activity against Candida albicans ATCC 90023 assessed as inhibition of fungal growth incubated for 24 hrs. Format: functional.
Another data set deals with Pseudomonas aeruginosa. Kind of data set: Antibacterial activity against Pseudomonas aeruginosa 27853 assessed as inhibition of bacterial growth incubated for 24 hrs by CLSI based broth microdilution method. In kind it is functional.
The subject of the next data set is Staphylococcus aureus. In words: Antibacterial activity against methicillin-resistant Staphylococcus aureus assessed as inhibition of bacterial growth incubated for 24 hrs by CLSI based broth microdilution method. In kind it is functional. On the technique in general: Dilution methods test growth across graded concentrations, often in twofold steps.
The subject of data set [1] is HL-60. Kind of data set: Antiproliferative activity against human HL-60 cells incubated for 48 hrs by MTT assay. Format: functional, cell-based. Conditions: HL-60, 48 h.
The subject of data set [2] is HL-60. Kind of data set: Potency index, ratio of berberine IC50 to test compound IC50 for antiproliferative activity against human HL-60 cells incubated for 48 hrs by MTT assay. In kind it is functional. Background: Formazan colour is commonly taken as a measure of viable cells.
The next data set has as its system Influenza A virus. Kind of data set: Antiviral activity against influenza virus A A/PR/8/34 infected in MDCK cells assessed as inhibition of virus-induced cytopathic effect measured after 48 hrs by SRB bioassay. To be noted: A/PR/8/34, MDCK. Format: functional, organism-based. Background: Protection from cytopathic effect is a common read-out in antiviral testing.

Data set [3] in a line: Cytotoxicity against MDCK cells incubated for 48 hrs by SRB bioassay. In kind it is toxicity, cell-based, Canis lupus familiaris. To be noted: dog.
Data set [4] is described as follows: Therapeutic index, ratio of CC50 for cytotoxicity against MDCK cells to IC50 for antiviral activity against influenza virus A A/PR/8/34. Format: toxicity, cell-based. Conditions: dog, read-out: TI.
In a further data set the target is Acetylcholinesterase (Homo sapiens, UniProt P22303). In words: Inhibition of acetylcholinesterase (unknown origin) using acetylthiocholine iodide as substrate incubated for 10 mins by Ellman's colorimetric method.
Sequence of Acetylcholinesterase (P22303 whole entry): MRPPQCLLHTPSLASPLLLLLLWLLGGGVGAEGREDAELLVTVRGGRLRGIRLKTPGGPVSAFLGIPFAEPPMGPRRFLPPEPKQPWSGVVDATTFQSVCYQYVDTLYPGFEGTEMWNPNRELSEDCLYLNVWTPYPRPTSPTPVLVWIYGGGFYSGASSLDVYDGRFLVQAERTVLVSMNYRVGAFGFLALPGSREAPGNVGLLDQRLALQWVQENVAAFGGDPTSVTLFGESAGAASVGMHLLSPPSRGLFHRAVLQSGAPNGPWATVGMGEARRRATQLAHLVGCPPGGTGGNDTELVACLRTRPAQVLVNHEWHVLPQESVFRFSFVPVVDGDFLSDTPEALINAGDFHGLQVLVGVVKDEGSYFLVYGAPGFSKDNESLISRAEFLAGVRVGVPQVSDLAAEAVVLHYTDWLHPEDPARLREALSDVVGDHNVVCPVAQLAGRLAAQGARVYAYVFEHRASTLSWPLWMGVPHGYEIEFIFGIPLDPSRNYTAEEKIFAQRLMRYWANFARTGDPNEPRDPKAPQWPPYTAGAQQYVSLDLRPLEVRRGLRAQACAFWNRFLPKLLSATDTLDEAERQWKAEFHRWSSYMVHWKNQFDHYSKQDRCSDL
For data set [5], the target named is Amine oxidase [flavin-containing] B (Homo sapiens, UniProt P27338). Kind of data set: Inhibition of human MAO-B preincubated for 30 mins followed by substrate addition and measured for 10 to 40 mins by fluorescence based assay.
Sequence of Amine oxidase [flavin-containing] B (P27338 whole entry): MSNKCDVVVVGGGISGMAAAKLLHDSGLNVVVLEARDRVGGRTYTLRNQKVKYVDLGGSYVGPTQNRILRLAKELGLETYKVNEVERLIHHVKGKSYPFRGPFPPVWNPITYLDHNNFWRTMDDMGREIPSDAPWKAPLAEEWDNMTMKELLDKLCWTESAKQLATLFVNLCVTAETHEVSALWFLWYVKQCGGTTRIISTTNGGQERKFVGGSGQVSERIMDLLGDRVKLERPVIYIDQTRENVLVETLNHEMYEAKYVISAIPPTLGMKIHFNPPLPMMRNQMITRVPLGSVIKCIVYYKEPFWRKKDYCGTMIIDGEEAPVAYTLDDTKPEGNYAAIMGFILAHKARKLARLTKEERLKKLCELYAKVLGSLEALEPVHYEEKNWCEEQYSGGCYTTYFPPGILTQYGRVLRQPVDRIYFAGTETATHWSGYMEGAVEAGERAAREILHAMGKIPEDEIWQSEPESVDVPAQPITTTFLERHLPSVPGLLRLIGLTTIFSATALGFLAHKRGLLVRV
In a further data set the test system is Coxsackievirus B2. Kind of data set: Antiviral activity against Human Coxsackievirus B2 infected in African green monkey Vero cells assessed as reduction in virus-induced cytopathic effect incubated for 48 hrs by microscopic analysis. In kind it is functional, organism-based. Conditions: Enterovirus B.
A further data set deals with Coxsackievirus B5. In words: Antiviral activity against Coxsackievirus B5 infected in African green monkey Vero cells assessed as reduction in virus-induced cytopathic effect incubated for 48 hrs by microscopic analysis. In kind it is functional, organism-based. Conditions: Enterovirus B.
For the next data set, the system named is Coxsackievirus B4. In words: Antiviral activity against Coxsackievirus B4 infected in African green monkey Vero cells assessed as reduction in virus-induced cytopathic effect incubated for 48 hrs by microscopic analysis. Format: functional, organism-based. To be noted: Enterovirus B.
Another data set relates to Coxsackievirus B6. Kind of data set: Antiviral activity against Human Coxsackievirus B6 infected in African green monkey Vero cells assessed as reduction in virus-induced cytopathic effect incubated for 48 hrs by microscopic analysis. Conditions: Enterovirus B. Format: functional, organism-based.
Another data set deals with Coxsackievirus B3. Kind of data set: Antiviral activity against Coxsackievirus B3 infected in African green monkey Vero cells assessed as reduction in virus-induced cytopathic effect incubated for 48 hrs by microscopic analysis. Format: functional, organism-based. To be noted: Enterovirus B.
Data set [6] relates to RAW264.7. In words: Antiinflammatory activity in LPS-induced mouse RAW264.7 cells assessed as reduction in COX-2 level at 25 uM pretreated for 1 hr followed by LPS stimulation and measured after 49 hrs by ELISA relative to control. In kind it is functional. More on the design: scale not given: the % may be the effect or the level left. Conditions: time 50 hrs.
Data set [7] in a line: Induction of glucose-stimulated insulin secretion in rat INS1 cells assessed as increase in insulin secretion at 25 uM pretreated for 48 hrs followed by glucose stimulation and measured after 1 hr by ELISA. In kind it is functional.
The subject of data set [8] is RAW264.7. In words: Antiinflammatory activity in LPS-induced mouse RAW264.7 cells assessed as reduction in […] level at 25 uM pretreated for 1 hr followed by LPS stimulation and measured after 49 hrs by ELISA relative to control. Format: functional. Conditions: time 50 hrs. More on the design: scale not given: the % may be the effect or the level left.
Data set [9] in a line: Cytotoxicity against mouse 3T3-L1 assessed as reduction in cell viability measured after 48 hrs by CCK-8 assay. In kind it is toxicity, cell-based. Conditions: 3T3-L1 cells.
A short description of data set [10]: Acute toxicity in ip dosed NIH mouse expressing aP2-SREBP-1c assessed as lethal dose measured for 14 days by modified karber's method. Format: organism-based. To be noted: in vivo, time 14 day.

Structures are written as SMILES. ≈ marks a conversion by molar mass, not a printed value.

As a reminder, the MIC is the smallest concentration in the dilution series that meets the test's criterion for growth inhibition. Consider `CCCCOc1c(OC)cc(/C=C2\SC(=O)NC2=O)c2c1CN1CCc3cc4c(cc3C1C2)OCO4` (stereo unspecified), for which the MIC came out at 8 µM (≈ 4.07 µg/mL) in the data set on Candida parapsilosis, 16 µM (≈ 8.14 µg/mL) with Candida albicans, 8 µM (≈ 4.07 µg/mL) in the data set with Pseudomonas aeruginosa and 8 µM (≈ 4.07 µg/mL) in the data set with Staphylococcus aureus.
By IC50 is commonly meant the point on the concentration scale where inhibition reaches its midpoint. With `COc1ccc2cc3[n+](cc2c1OCCCBr)CCc1cc2c(cc1-3)OCO2.[Cl-]`, the IC50 with HL-60 [1] worked out at 0.7 µM. In addition, the “Ratio IC50” value in the data set with HL-60 [2] stood at 30.
The term CC50 denotes the concentration giving 50% cytotoxicity. `COc1ccc(N2CCN(CCCCCOc3c(OC)ccc4cc5[n+](cc34)CCc3cc4c(cc3-5)OCO4)CC2)c(OC)c1.[Cl-]`: in the data set with Influenza A virus, the IC50 came to 35.2 µg/mL. Besides, in data set [3], half-maximal cytotoxicity (CC50 at 48 h) was put at 3890 µg/mL. In addition, in data set [4], the selectivity ratio is 111.
On to `COc1ccc2cc3[n+](cc2c1OC)CCc1cc(O)c(O)cc1-3`, for which the IC50 at Acetylcholinesterase amounted to 7.8 µM; in data set [5] it was 9.06 µM.
In the case of `COc1cc2c(cc1OCCOCCN)CC[n+]1cc3c(OC)c(OC)ccc3cc1-2`, the IC50 with Coxsackievirus B2, in the data set on Coxsackievirus B5, in the data set on Coxsackievirus B4, in the data set with Coxsackievirus B6 and in the data set on Coxsackievirus B3 was 3.08 µM throughout.
Take `COc1ccc2cc3[n+](cc2c1OCc1nc(C)nc(N(C)C)n1)CCc1cc2c(cc1-3)OCO2.[Cl-]`: the Activity was 25.42% in the data set on RAW264.7 [6], 143% in data set [7] and 36.41% in the data set on RAW264.7 [8].
The term LD50 denotes the dose at which mortality reaches 50%. Regarding `C=CCc1ccc(O)c(-c2cc(CC=C)ccc2OCCOc2c(OC)ccc3cc4[n+](cc23)CCc2cc3c(cc2-4)OCO3)c1.[Cl-]`, in data set [9], the IC50 at 48 h was 11.5 µM. In addition, in data set [10], the LD50 at 336 h amounted to 279 mg/kg.

(Values after ChEMBL document CHEMBL5096175, “An insight into the medicinal attributes of berberine derivatives: A review” (Bioorg Med Chem, 2021).)
